IC50 and EC50 data for 31 compounds are collected here from US7642277B2, “Non-nucleoside reverse transcriptase inhibitors” (Boehringer Ingelheim International GmbH, priority 2002, dated 2010).

Like-named read-outs stand apart in the source and are kept apart here.

The target of assay [1] is T1, HIV-1 RT enzyme (wild type) (Human immunodeficiency virus type 1 group M subtype B, UniProt P04585).
T1 construct: The reverse transcriptase (RT) enzyme assay has been adapted to a 96-well microtiter plate format
The assay is described as follows: Reverse transcriptase (RT) enzymatic assay (IC50), PicoGreen fluorescence, wild type. The assay is classed as biochemical. A digest of the protocol:
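Enzyme at ≈10 nM in 50 mM Tris/HCl pH 7.8 with 60 mM NaCl, 2 mM MgCl2, 6 mM DTT, 2 mM GSH, 0.02% Chaps; 15 min preincubation with compound at room temperature, then substrate added and run 50 min at 37 °C. EDTA quench; product DNA read by PicoGreen fluorescence.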

In assay [2] the target is T2, HIV-1 RT resistant mutant K103N/Y181C (Human immunodeficiency virus type 1 group M subtype B, UniProt P04585, K690N/Y768C).
T2 construct: The reverse transcriptase (RT) enzyme assay has been adapted to a 96-well microtiter plate format
The experiment in a line: Reverse transcriptase (RT) enzymatic assay (IC50), PicoGreen fluorescence, resistant mutant. The class given is biochemical.

In the next assay the test system is HIV-1 (wild type). The assay is described as follows: P24 cellular assay (EC50), data identified with * in Table 9, wild type. The class given is cell-based. The text has this: (§1) P24 Cellular Assay (EC50) (Data Identified with * in Table 9).
(§2) The p24 assay is as described in WO 01/96338, the contents of which are herein incorporated by reference.
(§3) The results are listed in Table 9 as IC50(nM) and EC50 (nM).
(§4) Table legend: A=>100; B=100-50; C=<50; NT=not tested

The subject of assay [3] is HIV-1 resistant mutant K103N/Y181C. The assay is described as follows: P24 cellular assay (EC50), data identified with * in Table 9, resistant mutant. The assay is classed as cell-based. The conditions noted are these: Human immunodeficiency virus 1, read-out: EC50 K103N/Y181C.
Description: as §1, §2, §3, §4

Assay [4] concerns HIV-1 (wild type) in C8166 LTRluc cells. The assay is described as follows: C8166 HIV-1 luciferase assay (EC50), wild type. The assay is classed as cell-based. The conditions noted are these: Human immunodeficiency virus 1, C8166 HIV-1 luciferase assay (no *). Summed up: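 C8166 cells carrying an HIV-1 LTR-driven luciferase reporter, infected at moi 0.005 for 1.5 h, then cultured 3 days at 37 °C with 11-point 2.5-fold inhibitor dilutions (≤0.1% DMSO) in triplicate, 25,000 cells/well. Luminescence gives % inhibition; EC50, slope and Imax from non-linear regression.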

The subject of assay [5] is HIV-1 resistant mutant K103N/Y181C in C8166 LTRluc cells. The experiment in a line: C8166 HIV-1 luciferase assay (EC50), resistant mutant. The assay is classed as cell-based. The conditions noted are these: Human immunodeficiency virus 1, C8166, read-out: EC50 K103N/Y181C.
Setting [6] is: RT enzymatic assay, wild type, read-out: IC50 WT.

In general, IC50 refers to the concentration at which inhibition is half-maximal. For `Clc1ccccc1[C@@H]1C[C@H]1CSc1nnnn1-c1cccc2ccccc12` (relative stereo) [Entry 316, trans-5-{{{2-(2-Chlorophenyl)cyclopropyl}methyl}thio}-1-(1-naphthalenyl)-1H-tetrazole], the half-inhibitory concentration (IC50) in assay [1] was 50 to 100 nM; in assay [2], above 100 nM. The compound further yielded an EC50 with HIV-1 (wild type) (Human immunodeficiency virus 1) below 50 nM.
In the same order, the values of `CN(C)c1ccc(-n2nnnc2SCC(=O)Nc2ccccc2[N+](=O)[O-])c2ccccc12` [Entry 102] are below 50 nM, above 100 nM and below 50 nM.
As to `O=C(CSc1nnnn1-c1ccccc1F)Nc1ccccc1[N+](=O)[O-]` [Entry 113], the 50% inhibitory concentration (IC50) in assay [1] was below 50 nM; in assay [2], above 100 nM. Moreover, the EC50 with HIV-1 (wild type) (Human immunodeficiency virus 1) was below 50 nM.
`CSc1ccccc1-n1nnnc1SCC(=O)Nc1ccccc1[N+](=O)[O-]` [Entry 116]: the half-maximal inhibitory concentration (IC50) in assay [1] was below 50 nM; in assay [2], above 100 nM. This compound also came in with an EC50 in the assay with HIV-1 (wild type) (Human immunodeficiency virus 1) below 50 nM.
As to `COC(=O)c1ccccc1-n1nnnc1SCC(=O)Nc1ccccc1[N+](=O)[O-]` [Entry 117], the concentration for half-maximal inhibition (IC50) in assay [1] (setting [6]) was below 50 nM; in assay [2] it was above 100 nM. In assay [3], the EC50 is above 100 nM.
For the compound `O=C(CSc1nnnn1-c1cccc(Cl)c1Cl)Nc1ccccc1[N+](=O)[O-]` [Entry 123], the IC50 in assay [1] (setting [6]) is below 50 nM; in assay [2] it was above 100 nM. Also, the EC50 in assay [3] was 50 to 100 nM.
Turning to `Cc1ccc(-n2nnnc2SCC(=O)Nc2ccccc2[N+](=O)[O-])c(Br)c1` [Entry 130], the IC50 in assay [1] is below 50 nM; in assay [2], above 100 nM. The compound further returned an EC50 with HIV-1 (wild type) (Human immunodeficiency virus 1) below 50 nM.
For the compound `Cc1cccc(Cl)c1-n1nnnc1SCC(=O)Nc1ccccc1[N+](=O)[O-]` [Entry 139], the half-maximal inhibitory concentration (IC50) in assay [1] is below 50 nM; in assay [2] it was above 100 nM. In the assay on HIV-1 (wild type) (Human immunodeficiency virus 1), the EC50 was below 50 nM.
`O=C(CSc1nnnn1-c1cccc2ccccc12)Nc1ccccc1Br` [Entry 209] gave a concentration for half-maximal inhibition (IC50) in assay [1] below 50 nM. In the assay with HIV-1 (wild type) (Human immunodeficiency virus 1), this compound registered an EC50 above 100 nM.
Take `COC(=O)c1ccc(NC(=O)CSc2nnnn2-c2cccc3ccccc23)c(Cl)c1` [Entry 235]: the IC50 was below 50 nM in assay [1] and above 100 nM in assay [2]. The EC50 in the assay with HIV-1 (wild type) (Human immunodeficiency virus 1) is below 50 nM.
`O=C(COc1nnnn1-c1cccc2ccccc12)Nc1ccccc1[N+](=O)[O-]` [Entry 302] displayed an EC50 in the assay on HIV-1 (wild type) (Human immunodeficiency virus 1) of 50 to 100 nM.
As for `S=C(CSc1nnnn1-c1cccc2ccccc12)Nc1ccccc1Cl` [Entry 308], the IC50 in assay [1] is above 100 nM. This compound yielded an EC50 in the assay with HIV-1 (wild type) (Human immunodeficiency virus 1) of 50 to 100 nM.
Consider `OC(CCSc1nnnn1-c1cccc2ccccc12)c1ccccc1Cl` (stereo not shown) [Entry 317, 5-{{3-(2-Chlorophenyl)-3-hydroxypropyl}thio}-1-(1-naphthalenyl)-1H-tetrazole], for which the results for the IC50 in assay [1] and in assay [2] were 50 to 100 nM and above 100 nM, respectively. In the assay with HIV-1 (wild type) (Human immunodeficiency virus 1), this compound yielded an EC50 below 50 nM.
Take `OC(CSc1nnnn1-c1cccc2ccccc12)Cc1ccccc1Cl` (stereo not shown) [Entry 318, 5-{{3-(2-Chlorophenyl)-2-hydroxypropyl}thio}-1-(1-naphthalenyl)-1H-tetrazole]: the figures for the IC50 in assay [1] and in assay [2] were 50 to 100 nM and above 100 nM, respectively. In the assay with HIV-1 (wild type) (Human immunodeficiency virus 1), this compound displayed an EC50 below 50 nM.
Turning to `OC(CNc1ccccc1Cl)CSc1nnnn1-c1cccc2ccccc12` (stereo not shown) [Entry 330, 5-{{3-{(2-Chlorophenyl)amino}-2-hydroxypropyl}thio}-1-(1-naphthalenyl)-1H-tetrazole], the IC50 is 50 to 100 nM in assay [1] and above 100 nM in assay [2]. The EC50 with HIV-1 (wild type) (Human immunodeficiency virus 1) was below 50 nM.
With `O=C(CSc1nc(-c2cccc3ccccc23)c[nH]1)Nc1ccccc1[N+](=O)[O-]` [Entry 401, 2-{{4-(1-Naphthalenyl)-1H-imidazol-2-yl}thio}-N-(2-nitrophenyl)acetamide], the EC50 in the assay with HIV-1 (wild type) was below 50 nM.
As to `O=C(COc1ccccc1-c1cccc2ccccc12)Nc1ccccc1[N+](=O)[O-]` [Entry 409], in assay [1] (setting [6]), the IC50 is above 100 nM. In addition, the EC50 in the assay with HIV-1 (wild type) (Human immunodeficiency virus 1) is above 100 nM.
Turning to `CC(C)(C)c1ccc(-n2nnnc2SCC(=O)Nc2ccc(N3CCCC3)cc2Cl)c(Cl)c1` [Entry 612], the results for the half-maximal inhibitory concentration (IC50) in assay [1] (setting [6]) and in assay [2] were below 50 nM and above 100 nM, respectively. Also, the EC50 in assay [4] is 50 to 100 nM; in assay [5], above 100 nM.
Turning to `CC(C)(C)c1ccc(-n2nnnc2SCC(=O)Nc2ccc(N3CCCCC3)cc2Cl)c(Cl)c1` [Entry 613], the IC50 was below 50 nM in assay [1] (setting [6]) and above 100 nM in assay [2]. Further, the EC50 in assay [4] is below 50 nM; in assay [5], above 100 nM.
Consider `CC(C)(C)OC(=O)N1CCN(c2ccc(NC(=O)CSc3nnnn3-c3ccc(C(C)(C)C)cc3Cl)c(Cl)c2)CC1` [Entry 614], for which the half-maximal inhibitory concentration (IC50) in assay [1] (setting [6]) is below 50 nM; in assay [2] it was above 100 nM. Also, the EC50 is below 50 nM in assay [4] and above 100 nM in assay [5].
As to `CC(C)(C)c1ccc(-n2nnnc2SCC(=O)Nc2ccc(N3CCNCC3)cc2Cl)c(Cl)c1` [Entry 615], the values for the half-maximal inhibitory concentration (IC50) in assay [1] (setting [6]) and in assay [2] were below 50 nM and above 100 nM, respectively. For the same compound, the results for the EC50 in assay [4] and in assay [5] were below 50 nM and above 100 nM, respectively.
For the compound `CC(C)(C)c1ccc(-n2nnnc2SCC(=O)Nc2ccc(C(=O)O)cc2Cl)c(Cl)c1` [Entry 616], the IC50 in assay [1] (setting [6]) is below 50 nM; in assay [2], 50 to 100 nM. For the same compound, the EC50 in assay [4] and in assay [5] was below 50 nM throughout.
In the case of `CC(C)(C)c1ccc(-n2nnnc2SCC(=O)Nc2ccc(N)cc2Cl)c(Cl)c1` [Entry 617], the half-inhibitory concentration (IC50) was below 50 nM in assay [1] (setting [6]) and above 100 nM in assay [2]. Moreover, the EC50 was below 50 nM in assay [4] and 50 to 100 nM in assay [5].
In the case of `Cc1cc(C(F)(F)F)cc(-n2nnnc2SCC(=O)Nc2ccc(S(N)(=O)=O)cc2Cl)c1Cl` [Entry 703], the 50% inhibitory concentration (IC50) in assay [1] (setting [6]) was below 50 nM; in assay [2], 50 to 100 nM. In addition, the EC50 in assay [4] and in assay [5] was below 50 nM in each case.
For the compound `CCN(CC)c1ccc(-n2nnnc2SCC(=O)Nc2ccccc2Cl)c(Cl)c1` [Entry 705], the IC50 was below 50 nM in assay [1] (setting [6]) and above 100 nM in assay [2]. The EC50 in assay [4] is below 50 nM; in assay [5], above 100 nM.
With `O=C(CSc1nnnn1-c1ccc(I)cc1Cl)Nc1ccccc1Cl` [Entry 706], the half-maximal inhibitory concentration (IC50) in assay [1] (setting [6]) was below 50 nM; in assay [2] it was above 100 nM. Besides, the EC50 in assay [4] was below 50 nM; in assay [5], above 100 nM.
Take `CCc1ccc(-n2nnnc2SCC(=O)Nc2ccccc2Cl)c(Cl)c1` [Entry 707]: the IC50 in assay [1] (setting [6]) is below 50 nM; in assay [2], above 100 nM. The results for the EC50 in assay [4] and in assay [5] were below 50 nM and above 100 nM, respectively.
Consider `C=CCc1ccc(-n2nnnc2SCC(=O)Nc2ccccc2Cl)c(Cl)c1` [Entry 708], for which the IC50 in assay [1] (setting [6]) is below 50 nM; in assay [2], above 100 nM. In addition, the EC50 was below 50 nM in assay [4] and above 100 nM in assay [5].
As to `CC(C)=CCc1ccc(-n2nnnc2SCC(=O)Nc2ccccc2Cl)c(Cl)c1` [Entry 709], the 50% inhibitory concentration (IC50) in assay [1] (setting [6]) is below 50 nM; in assay [2] it was above 100 nM. In addition, the EC50 in assay [4] and in assay [5] was above 100 nM each time.
As to `CC(C)(C)c1ccc(-n2nnnc2SCC(=O)Nc2ccncc2Cl)c(Cl)c1` [Entry 801], the IC50 in assay [1] (setting [6]) and in assay [2] was below 50 nM each time. The EC50 in assay [4] and in assay [5] was below 50 nM each time.
Regarding `Cc1ccc(NC(=O)CSc2nnnn2-c2ccc(C(C)(C)C)cc2Cl)c(Cl)n1` [Entry 802], the figures for the IC50 in assay [1] (setting [6]) and in assay [2] were below 50 nM and above 100 nM, respectively. Besides, the EC50 in assay [4] is below 50 nM; in assay [5] it was 50 to 100 nM.
